Usually IC50 stands for the midpoint of a concentration-inhibition curve. High values mean a need for much substance, low ones inhibition by little substance.

This passage reports IC50 results from ChEMBL document CHEMBL1149029, “New cycloartanol sulfates from the alga Tydemania expeditionis: inhibitors of the protein tyrosine kinase pp60v-src” (J Nat Prod, 1994).

This assay can be described thus: Inhibition of Rous sarcoma virus pp60v-src.
In turn, `CC(C)CC(=O)C[C@@H](C)[C@H]1CC[C@@]2(C)[C@@H]3CC[C@H]4[C@](C)(COS(=O)(=O)O)[C@@H](OS(=O)(=O)O)CC[C@@]45C[C@@]35CC[C@]12C` came in with a half-inhibitory concentration (IC50) of 32 µM.

Turning to `CC(C)CC(O)C[C@@H](C)[C@H]1CC[C@@]2(C)[C@@H]3CC[C@H]4[C@](C)(COS(=O)(=O)O)[C@@H](OS(=O)(=O)O)CC[C@@]45C[C@@]35CC[C@]12C` (stereo partly drawn), the IC50 was found to be 100 µM.

In turn, `CC(C)=CC(=O)C[C@@H](C)[C@H]1CC[C@@]2(C)[C@@H]3CC[C@H]4[C@](C)(COS(=O)(=O)O)[C@@H](OS(=O)(=O)O)CC[C@@]45C[C@@]35CC[C@]12C` displayed an IC50 of 39 µM.
